Assay results from ChEMBL document CHEMBL6074685, “Design, synthesis and biological evaluation of novel diaryl-substituted fused nitrogen heterocycles as tubulin polymerization inhibitors to overcome multidrug resistance in vitro and in vivo” (Eur J Med Chem, 2025).
Values after ≈ are worked out from the molar mass of the structure shown. Active and inactive are the calls of the source. The rule behind the calls is not given here.

Assays:
A549 = assay: Antiproliferative activity against human A549 cells assessed as cell growth inhibition incubated for 48 hrs by MTT assay; settings: A549, 48 h
[1] = Resistance index, ratio of IC50 for human A549/T cells to IC50 for human A549 cells; format: functional
A549/TR [2] = assay: Antiproliferative activity against human A549/T cell assessed as cell growth inhibition incubated for 48 hrs by MTT assay; format: functional, cell-based
[3] = Aqueous solubility of the compound […] at pH 7.4 by HPLC analysis; format: physicochemical
A549/TR [4] = assay: Antitumor activity against human A549/T cell xenografted in BALB/c mouse assessed as reduction in tumor growth at 15 mg/kg, ip administered every 2 days; format: functional, organism-based; settings: time 2.0 day
[5] = Inhibition of pig brain tubulin polymerization measured upto 20 mins by absorbance based assay; design: species or system Sus scrofa
[6] = Metabolic stability in human liver microsome assessed as intrinsic clearance measured upto 50 mins by LC-MS/MS analysis; format: ADME; settings: liver microsomes, read-out: CLH
[7] = Toxicity in BALB/c mouse implanted with human A549/T cell assessed as change in body weight at 15 mg/kg, ip administered every 2 days; format: organism-based; settings: in vivo, 48 h, time 2 day
[8] = Metabolic stability in human liver microsome assessed as half life measured upto 50 mins by LC-MS/MS analysis; format: ADME; settings: liver microsomes
A549/TR [9] = assay: Antiproliferative activity against human A549/T cell assessed as cell growth inhibition in presence of verapamil incubated for 48 hrs by MTT assay; format: functional, cell-based
[10] = Metabolic stability in mouse liver microsome assessed as intrinsic clearance measured upto 50 mins by LC-MS/MS analysis; format: ADME; settings: liver microsomes, read-out: CLH
[11] = Metabolic stability in mouse liver microsome assessed as half life measured upto 50 mins by LC-MS/MS analysis; format: ADME; settings: liver microsomes

With `COc1cc(-c2cc(-c3ccc(C4CC4)cc3)cc3[nH]cnc23)cc(OC)c1OC` the IC50 (A549) was 4.92 µM, the “Ratio IC50” value [1] was 1.34 and the IC50 (A549/TR [2]) was 6.76 µM.
In the case of `COc1ccc(-c2cc(-c3cc(OC)c(OC)c(OC)c3)c3nc[nH]c3c2)cc1N`, the IC50 (A549) is reported as 0.033 µM, the “Ratio IC50” value [1] is reported as 4.84 and the IC50 (A549/TR [2]) is reported as 0.16 µM.
In the case of `COc1ccc(-c2cc3c([nH]c(=O)n3-c3cc(OC)c(OC)c(OC)c3)c(C(N)=O)n2)cc1O`, the IC50 (A549/TR [2]) is reported as 33.8 µM.
With `CCOc1ccc(-c2cc(-c3cc(OC)c(OC)c(OC)c3)c3nc[nH]c3c2)cc1` the IC50 (A549) was 1.03 µM, the “Ratio IC50” value [1] was 2.86 and the IC50 (A549/TR [2]) was 2.95 µM.
In the case of `COc1ccc(-c2nc(N(C)c3cc(OC)c(OC)c(OC)c3)c3ncn(C)c3n2)cc1F`, the IC50 (A549) is reported as 9.91 µM, the “Ratio IC50” value [1] is reported as 1.67 and the IC50 (A549/TR [2]) is reported as 16.6 µM.
In the case of `COc1ccc(-c2cc(-c3cc(OC)c(OC)c(OC)c3)c3[nH]c(=O)[nH]c3c2)cc1F`, the IC50 (A549) is reported as 1.27 µM, the “Ratio IC50” value [1] is reported as 2.37 and the IC50 (A549/TR [2]) is reported as 3.02 µM.
For `COc1cc(-c2cc(-c3ccc(C)c(F)c3)cc3[nH]cnc23)cc(OC)c1OC`, the IC50 (A549) was 0.11 µM, the “Ratio IC50” value [1] was 3.45 and the IC50 (A549/TR [2]) was 0.38 µM.
With `COc1ccc(-c2cc(-c3cc(OC)c(OC)c(OC)c3)c3nc[nH]c3c2)cc1F` the IC50 (A549) was 0.11 µM, the “Ratio IC50” value [1] was 2.73 and the IC50 (A549/TR [2]) was 0.3 µM.
In the case of `COc1ccc(/C=C\c2cc(OC)c(OC)c(OC)c2)cc1O` [COMBRETASTATIN A4], the solubility [3] is reported as 1 µg/mL (≈ 3.16 µM), the Activity (A549/TR [4]) is reported as “Active” and the IC50 [5] is reported as 1.4 µM. The CLint scaled [6] was 90 mL/min/kg, the Activity [7] was “Non-toxic” and the IC50 (A549/TR [2]) was 0.013 µM. It also gave a half-life [8] of 14 min.
In the case of `COc1ccc(Nc2nc(Nc3cc(OC)c(OC)c(OC)c3)c3ccccc3n2)cc1F`, the IC50 (A549) is reported as 2.77 µM, the “Ratio IC50” value [1] is reported as 3.96 and the IC50 (A549/TR [2]) is reported as 11 µM.
In the case of `COc1ccc(-c2nc(Nc3cc(OC)c(OC)c(OC)c3)c3ccccc3n2)cc1F`, the IC50 (A549) is reported as 10.3 µM, the “Ratio IC50” value [1] is reported as >4.84 and the IC50 (A549/TR [2]) is reported as > 50 µM.
For `COc1ccc(-c2nc3c(c(Nc4cc(OC)c(OC)c(OC)c4)n2)CCCC3)cc1F`, the IC50 (A549) was 10.4 µM, the “Ratio IC50” value [1] was 1.12 and the IC50 (A549/TR [2]) was 11.7 µM.
With `COc1ccc(-c2nc(Nc3cc(OC)c(OC)c(OC)c3)c3cc(OC)c(OC)cc3n2)cc1F` the IC50 (A549) was > 50 µM and the IC50 (A549/TR [2]) was > 50 µM.
For `COc1ccc(-c2cncc3[nH]c(=O)n(-c4cc(OC)c(OC)c(OC)c4)c23)cc1F`, the IC50 (A549/TR [2]) was > 50 µM.
For `COc1cc2c(c(OC)c1OC)-c1ccc(OC)c(=O)cc1[C@@H](NC(C)=O)CC2` [COLCHICINE], the IC50 (A549) was 0.022 µM, the “Ratio IC50” value [1] was 12 and the Activity (A549/TR [9]) was “Active”. The IC50 (A549/TR [2]) was 0.28 µM.
In the case of `COc1ccc(-c2cc(-c3cc(OC)c(OC)c(OC)c3)c3cc[nH]c3c2)cc1F`, the IC50 (A549) is reported as 4.82 µM, the “Ratio IC50” value [1] is reported as 3.29 and the IC50 (A549/TR [2]) is reported as 15.8 µM.
With `COc1ccc(-c2cc(Oc3cc(OC)c(OC)c(OC)c3)c3nc[nH]c3c2)cc1F` the IC50 (A549) was 5.13 µM, the “Ratio IC50” value [1] was 1.99 and the IC50 (A549/TR [2]) was 10.2 µM.
In the case of `COc1ccc(-c2nc3c(c(Nc4cc(OC)c(OC)c(OC)c4)n2)SCC3)cc1F`, the IC50 (A549) is reported as > 50 µM and the IC50 (A549/TR [2]) is reported as > 50 µM.
For `COc1ccc(-c2cc(Oc3cc(OC)c(OC)c(OC)c3)c3ncn(C)c3c2)cc1F`, the IC50 (A549) was 0.2 µM, the “Ratio IC50” value [1] was 2.05 and the IC50 (A549/TR [2]) was 0.41 µM.
For `COc1ccc(-c2nc3cnccc3n2-c2cc(OC)c(OC)c(OC)c2)cc1O`, the IC50 (A549/TR [2]) was > 50 µM.
`O=C(c1ccc(F)cc1)C1CCN(CCn2c(=O)[nH]c3ccccc3c2=O)CC1` [KETANSERIN] showed a CLint scaled [6] of 47 mL/min/kg, a CLint scaled [10] of 419 mL/min/kg and a half-life [11] of 13 min. The half-life [8] was 37 min.
In the case of `COc1ccc(-c2cc(-c3cc(OC)c(OC)c(OC)c3)c3nc(C)[nH]c3c2)cc1O`, the IC50 (A549) is reported as 0.53 µM, the “Ratio IC50” value [1] is reported as 3.58 and the IC50 (A549/TR [2]) is reported as 1.9 µM.
In the case of `COc1ccc(-c2nc(Nc3cc(OC)c(OC)c(OC)c3)c3cccnc3n2)cc1F`, the IC50 (A549) is reported as 5.36 µM, the “Ratio IC50” value [1] is reported as >9.43 and the IC50 (A549/TR [2]) is reported as > 50 µM.
In the case of `COc1cc(-c2cccc3[nH]cnc23)cc(OC)c1OC`, the IC50 (A549) is reported as > 50 µM and the IC50 (A549/TR [2]) is reported as > 50 µM.
For `COc1ccc2nc(-c3ccc(OC)c(F)c3)nc(Nc3cc(OC)c(OC)c(OC)c3)c2c1`, the IC50 (A549) was 2.04 µM, the “Ratio IC50” value [1] was 4.37 and the IC50 (A549/TR [2]) was 8.91 µM.
With `COc1ccc(-c2cc(-c3cc(OC)c(OC)c(OC)c3)c3nc(C)[nH]c3c2)cc1F` the IC50 (A549) was 5.37 µM, the “Ratio IC50” value [1] was 1.9 and the IC50 (A549/TR [2]) was 10.2 µM.
